Test results: PubChem BioAssay AID1963965 (Molecular Pharmacology Branch, DTP, NCI, 2024)
“And” between values parts separate entries of the source, which are not always exact repeats. Identical values can stand only once.

Tested on: 996289-038-R-J1-PDC spheroid viability
Assay: Anticancer human tumor 996289-038-R-J1-PDC patient-derived colon adenocarcinoma cell line growth inhibition [PI3K]
Details: spheroids with HUVEC and MSC; for viability, T/C: stronger effect = lower value
Outline: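 Three cell types, namely tumor cells, endothelial cells and mesenchymal stem cells, formed each spheroid. Combinations with four PI3K inhibitors were screened at clinically achievable concentrations decreasing by half-log, and spheroid viability was recorded.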

[1] = curve of first compound, second compound 0.00316 µM
[2] = curve of first compound, second compound 0.01 µM
[3] = curve of first compound, second compound 0.0316 µM
[4] = curve of first compound, second compound 0.1 µM
[5] = curve of first compound, second compound 0.316 µM
[6] = curve of first compound, second compound 1 µM
[7] = second compound 0.00316 µM, first compound 0.0316 µM
[8] = second compound 0.00316 µM, first compound 0.1 µM
[9] = second compound 0.00316 µM, first compound 0.316 µM
[10] = second compound 0.00316 µM, first compound 1 µM
[11] = second compound 0.00316 µM, first compound 3.16 µM
[12] = second compound 0.00316 µM, first compound 10 µM
[13] = second compound 0.01 µM, first compound 0.0316 µM
[14] = second compound 0.01 µM, first compound 0.1 µM
[15] = second compound 0.01 µM, first compound 0.316 µM
[16] = second compound 0.01 µM, first compound 1 µM
[17] = second compound 0.01 µM, first compound 3.16 µM
[18] = second compound 0.01 µM, first compound 10 µM
[19] = second compound 0.0316 µM, first compound 0.0316 µM
[20] = second compound 0.0316 µM, first compound 0.1 µM
[21] = second compound 0.0316 µM, first compound 0.316 µM
[22] = second compound 0.0316 µM, first compound 1 µM
[23] = second compound 0.0316 µM, first compound 3.16 µM
[24] = second compound 0.0316 µM, first compound 10 µM
[25] = second compound 0.1 µM, first compound 0.0316 µM
[26] = second compound 0.1 µM, first compound 0.1 µM
[27] = second compound 0.1 µM, first compound 0.316 µM
[28] = second compound 0.1 µM, first compound 1 µM
[29] = second compound 0.1 µM, first compound 3.16 µM
[30] = second compound 0.1 µM, first compound 10 µM
[31] = second compound 0.316 µM, first compound 0.0316 µM
[32] = second compound 0.316 µM, first compound 0.1 µM
[33] = second compound 0.316 µM, first compound 0.316 µM
[34] = second compound 0.316 µM, first compound 1 µM
[35] = second compound 0.316 µM, first compound 3.16 µM
[36] = second compound 0.316 µM, first compound 10 µM
[37] = second compound 1 µM, first compound 0.0316 µM
[38] = second compound 1 µM, first compound 0.1 µM
[39] = second compound 1 µM, first compound 0.316 µM
[40] = second compound 1 µM, first compound 1 µM
[41] = second compound 1 µM, first compound 3.16 µM
[42] = second compound 1 µM, first compound 10 µM
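Note: spheroids exposed to compounds for seven days before viability read.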
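Throughout, for viability, T/C: luminescence used as a proxy for viable cell amount; percent viability relative to DMSO vehicle control as 100%.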

`COc1c(OCCCN2CCOCC2)ccc2c3n(c(=NC(=O)c4cnc(N)nc4)nc12)CCN3` was tested, and the viability, T/C (compound 0.00316 µM) was 96.3% [middle of 8 runs], the viability, T/C (compound 0.01 µM) was 96.2% [middle of 8 runs] and the viability, T/C (compound 0.0316 µM) was 76.4% [middle of 8 runs]. The viability, T/C (compound 0.1 µM) was 61.7% [middle of 8 runs], the viability, T/C (compound 0.316 µM) was 36.1% [middle of 8 runs] and the viability, T/C (compound 1 µM) was 21.6% [middle of 8 runs]. The IC50 (compound alone, run of 06/13/2023) was 162 nM [middle of 8 runs].

For `CC(Cn1ccc(-c2ccc(C#N)c(Cl)c2)n1)NC(=O)c1cc(C(C)O)[nH]n1` (stereo unspecified), the viability, T/C (compound 0.0316 µM) was 98.8% [middle of 4 runs], the viability, T/C (compound 0.1 µM) was 104% (2×) and 86.4% and 92.5% and the viability, T/C (compound 0.316 µM) was 86.8% and 108% (2×) and 113%. For the same molecule, the viability, T/C (compound 1 µM) was 108% [middle of 4 runs], the viability, T/C (compound 3.16 µM) was 97.8% [middle of 4 runs] and the viability, T/C (compound 10 µM) was 101% [middle of 4 runs]. The IC50 (curve of compound) was over 10 µM.

Work on `CNC(=O)c1ccc(N2C(=S)N(c3ccc(C#N)c(C(F)(F)F)c3)C(=O)C2(C)C)cc1F` + CC(Nc1ccc2c(c1)OCCn1cc(N3C(=O)OCC3C(F)F)nc1-2)C(N)=O yielded an IC50 [1] of over 10 µM, an IC50 [2] of over 10 µM and an IC50 [3] of over 10 µM. It also gave an IC50 [4] of over 10 µM, an IC50 [5] of over 10 µM and an IC50 [6] of over 10 µM. For the same molecule, the viability, T/C [7] was 82.9%, the viability, T/C [8] was 95.5% and the viability, T/C [9] was 103%. For the same molecule, the viability, T/C [10] was 93.1%, the viability, T/C [11] was 89% and the viability, T/C [12] was 110%. The viability, T/C [13] was 100%, the viability, T/C [14] was 88.6% and the viability, T/C [15] was 100%. The viability, T/C [16] was 88.2%, the viability, T/C [17] was 98.2% and the viability, T/C [18] was 102%. The viability, T/C [19] was 98.3%, the viability, T/C [20] was 81.9% and the viability, T/C [21] was 80.1%. The viability, T/C [22] was 87.9%, the viability, T/C [23] was 92.1% and the viability, T/C [24] was 86.4%. The viability, T/C [25] was 79.4%, the viability, T/C [26] was 85.4% and the viability, T/C [27] was 80.5%. It also gave a viability, T/C [28] of 77.8%, a viability, T/C [29] of 92.9% and a viability, T/C [30] of 72%. For the same molecule, the viability, T/C [31] was 65.1%, the viability, T/C [32] was 70.8% and the viability, T/C [33] was 73.3%. It also gave a viability, T/C [34] of 74.2%, a viability, T/C [35] of 70.3% and a viability, T/C [36] of 64%. The viability, T/C [37] was 55.5%, the viability, T/C [38] was 59.3% and the viability, T/C [39] was 60.4%. The viability, T/C [40] was 61.5%, the viability, T/C [41] was 51.9% and the viability, T/C [42] was 53.5%.

For `CC1(C)CCC(Nc2ncc(C(F)(F)F)c(-c3c[nH]c4c(P(C)(C)=O)c(C#N)ccc34)n2)CN1` (stereo unspecified), the viability, T/C (compound 0.1 µM) was 86.5% [middle of 4 runs], the viability, T/C (compound 0.316 µM) was 86% [middle of 4 runs] and the viability, T/C (compound 1 µM) was 88.9% [middle of 4 runs]. For the same molecule, the viability, T/C (compound 3.16 µM) was 91.5% [middle of 4 runs], the viability, T/C (compound 10 µM) was 26.9% [middle of 4 runs] and the IC50 (curve of compound) was 6.64 µM [middle of 4 runs].

For `C=CC(=O)N1CCN(c2nc(=O)n(-c3c(C)ccnc3C(C)C)c3nc(-c4c(O)cccc4F)c(F)cc23)C(C)C1` (stereo unspecified) + CC(Nc1ncnc2nc[nH]c12)c1cc2cccc(Cl)c2c(=O)n1-c1ccccc1, the IC50 [3] was over 10 µM, the IC50 [4] was over 10 µM and the IC50 [5] was over 10 µM. For the same molecule, the IC50 [6] was over 10 µM, the IC50 (curve of first compound, second compound 3.16 µM) was over 10 µM and the IC50 (curve of first compound, second compound 10 µM) was over 10 µM. For the same molecule, the viability, T/C [19] was 101%, the viability, T/C [20] was 97.8% and the viability, T/C [21] was 91.2%. It also gave a viability, T/C [22] of 100%, a viability, T/C [23] of 107% and a viability, T/C [24] of 106%. It also gave a viability, T/C [25] of 113%, a viability, T/C [26] of 93.1% and a viability, T/C [27] of 98.1%. For the same molecule, the viability, T/C [28] was 106%, the viability, T/C [29] was 120% and the viability, T/C [30] was 97%. For the same molecule, the viability, T/C [31] was 95.1%, the viability, T/C [32] was 106% and the viability, T/C [33] was 107%. For the same molecule, the viability, T/C [34] was 107%, the viability, T/C [35] was 105% and the viability, T/C [36] was 105%. It also gave a viability, T/C [37] of 93.8%, a viability, T/C [38] of 88.3% and a viability, T/C [39] of 101%. The viability, T/C [40] was 98.6%, the viability, T/C [41] was 112% and the viability, T/C [42] was 99.6%. It also gave a viability, T/C (second compound 3.16 µM, first compound 0.0316 µM) of 97.2%, a viability, T/C (second compound 3.16 µM, first compound 0.1 µM) of 101% and a viability, T/C (second compound 3.16 µM, first compound 0.316 µM) of 88.3%. The viability, T/C (second compound 3.16 µM, first compound 1 µM) was 101%, the viability, T/C (second compound 3.16 µM, first compound 3.16 µM) was 118% and the viability, T/C (second compound 3.16 µM, first compound 10 µM) was 107%. The viability, T/C (second compound 10 µM, first compound 0.0316 µM) was 103%, the viability, T/C (second compound 10 µM, first compound 0.1 µM) was 88.4% and the viability, T/C (second compound 10 µM, first compound 0.316 µM) was 90.7%. The viability, T/C (second compound 10 µM, first compound 1 µM) was 97.9%, the viability, T/C (second compound 10 µM, first compound 3.16 µM) was 105% and the viability, T/C (second compound 10 µM, first compound 10 µM) was 95.9%.

For `CNC(=O)c1ccc(N2C(=S)N(c3ccc(C#N)c(C(F)(F)F)c3)C(=O)C2(C)C)cc1F` + COc1c(OCCCN2CCOCC2)ccc2c3n(c(=NC(=O)c4cnc(N)nc4)nc12)CCN3, the IC50 [1] was over 10 µM, the IC50 [2] was over 10 µM and the IC50 [3] was over 10 µM. It also gave an IC50 [4] of over 10 µM, an IC50 [5] of under 0.0316 µM and an IC50 [6] of under 0.0316 µM. It also gave a viability, T/C [7] of 103%, a viability, T/C [8] of 92.2% and a viability, T/C [9] of 93.2%. It also gave a viability, T/C [10] of 106%, a viability, T/C [11] of 99.4% and a viability, T/C [12] of 125%. The viability, T/C [13] was 98%, the viability, T/C [14] was 89.8% and the viability, T/C [15] was 103%. It also gave a viability, T/C [16] of 88.9%, a viability, T/C [17] of 87% and a viability, T/C [18] of 106%. It also gave a viability, T/C [19] of 82.5%, a viability, T/C [20] of 78% and a viability, T/C [21] of 81%. The viability, T/C [22] was 67.5%, the viability, T/C [23] was 89.4% and the viability, T/C [24] was 92.4%. The viability, T/C [25] was 66.5%, the viability, T/C [26] was 66.2% and the viability, T/C [27] was 64.8%. It also gave a viability, T/C [28] of 67.7%, a viability, T/C [29] of 58.7% and a viability, T/C [30] of 65.9%. For the same molecule, the viability, T/C [31] was 40.1%, the viability, T/C [32] was 33.2% and the viability, T/C [33] was 34.5%. It also gave a viability, T/C [34] of 39.8%, a viability, T/C [35] of 40.3% and a viability, T/C [36] of 27.6%. For the same molecule, the viability, T/C [37] was 21.8%, the viability, T/C [38] was 19.9% and the viability, T/C [39] was 18%. It also gave a viability, T/C [40] of 20.1%, a viability, T/C [41] of 19.1% and a viability, T/C [42] of 13.8%.
